# Laboratory results as given in publication PMC9748900, “Unconventional isoquinoline-based SERMs elicit fulvestrant-like transcriptional programs in ER+ breast cancer cells” (NPJ Breast Cancer, 2022).
# “Also recorded” adds a separate entry of the source. Where two headings read alike, the source gives them in different places.
# Assays:
# [1] = system: Ishikawa endometrial cells; assay: Alkaline phosphatase (AP) assay in Ishikawa cells; assay type: cell-based, human; conditions: 72 h; for AP1 Induction: 1 nM E2 or 1 μM compound, absorbance at 405 nm, mean + std. dev., n = 3-9
# From the text: SERM enhancement of ERα accumulation in breast cancer cells correlates with uterotrophic activities[22],[30]. Despite the inclusion of side arms from known SERDs, most T6Is appeared SERM-like in breast cancer cells as they increased ERα levels. To measure the SERM-agonist activities of the T6Is, we employed an AP activity assay in Ishikawa endometrial cells[22],[32],[40]. […] Many T6Is show unexpected AP activities in these cells. […] Therefore, we would expect these SERMs to show a greater induction of AP (Supplementary Fig. 5). […] This difference was significant (p = 0.004) compared to 4OHT, which measured 0.68 ± 0.12 absorbance units. In most studies of SERM-agonist activities, AP assays are combined with increases in uterine wet-weight in vivo[22],[41],[42].
# AP assays were performed as described. Briefly, 15,000 Ishikawa cells were seeded into 96-well plates then placed in serum-starved medium for 48–72 h. Cells were treated for three days with veh, hormone, SERM, or SERD. The media was aspirated and the cells were frozen at −80 °C for at least 24 h. Cells were thawed then incubated with p-nitrophenyl phosphate (ThermoFisher) chromogenic AP substrate. After 60 min at 40 °C, absorbance was read at 405 nm on a BioTek Cytation 5 plate reader.
# Ishikawa cells = assay: Ishikawa cell count (endometrial proliferation); assay type: cell-based, human; conditions: 1 nM E2 or 1 μM antiestrogen, 144 h
# [2] = system: transcriptome of T47D breast cancer cells; assay: RNA sequencing of T47D cells; assay type: cell-based
# Description: We next used RNA transcriptomic analysis (RNAseq) to identify differentially affected genes. […] All sequencing runs were performed with three replicates per treatment.
# T47D breast cancer cells were grown in 6-well dishes at 50,000 cells per well. […] After 24 h, they were placed in serum-starved media for 48 h. […] RNA was isolated using a Qiagen RNeasy Kit then sent to Novogene for sequencing and bioinformatics analysis.
# [3] = system: gene expression in T47D breast cancer cells; assay: qPCR gene expression in T47D cells; assay type: cell-based; conditions: 1 μM + 1 nM E2, 16 h
# [4] = system: gene expression in MCF7:WS8 breast cancer cells; assay: qPCR gene expression in MCF7:WS8 cells
# [5] = system: patients with advanced disease with prior hormone therapy; conditions: compared to standard of care ref 6, cited from earlier work
# ERα [6] = target: T1, ERα (Homo sapiens, UniProt P03372); assay: ERE transcriptional reporter gene assay in MCF7 cells; assay type: cell-based; parameters: endogenous in cells; host or cells: MCF7 cells with 3x-ERE-GFP reporter
# T1 sequence (P03372 1-595): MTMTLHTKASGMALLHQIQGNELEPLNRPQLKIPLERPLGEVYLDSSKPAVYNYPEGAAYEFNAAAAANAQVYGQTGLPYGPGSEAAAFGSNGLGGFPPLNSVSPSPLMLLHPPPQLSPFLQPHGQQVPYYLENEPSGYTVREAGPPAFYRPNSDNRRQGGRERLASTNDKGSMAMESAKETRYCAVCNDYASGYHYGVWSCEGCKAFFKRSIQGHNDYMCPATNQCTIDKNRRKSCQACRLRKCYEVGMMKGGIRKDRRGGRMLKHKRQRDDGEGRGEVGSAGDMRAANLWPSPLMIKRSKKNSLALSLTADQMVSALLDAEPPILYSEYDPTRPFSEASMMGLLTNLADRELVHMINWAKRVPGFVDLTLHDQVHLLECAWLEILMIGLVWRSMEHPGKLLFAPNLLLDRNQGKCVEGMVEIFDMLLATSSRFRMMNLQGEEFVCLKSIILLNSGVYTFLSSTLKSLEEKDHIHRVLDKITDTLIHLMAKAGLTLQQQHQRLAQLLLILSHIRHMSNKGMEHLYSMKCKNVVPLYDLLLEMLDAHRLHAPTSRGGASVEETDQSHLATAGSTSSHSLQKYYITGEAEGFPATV
# Description: A cyclopropyl group was used in place of RAD1901’s ethylamine. […] We initially synthesized 4 derivatives comprised of different pharmacophores on the analogous steroidal A ring (Fig. 2d) and used an ERE reporter gene assay in MCF7 breast cancer cells to measure their transcriptional inhibitory activities.
# This assay was performed in accordance with a previous report. MCF7 breast cancer cells with a 3x-estrogen response element-green fluorescent protein (GFP) reporter gene construct under a CMV promoter were plated in 96-well dishes at 3000 cells per well. Cells were cultured for 48 h in stripped media that included charcoal stripped fetal bovine serum (FBS). Cells were treated with increasing concentrations of antiestrogen (5 pm to 1 µM) for 24 h. Subsequently, percent GFP-positive cells were imaged using a BioTek Cytation 5 live cell imager. All assays were performed three times with three technical replicates each.
# T47D breast cancer cells = assay: Cellular proliferation (label-free cell count), T47D; assay type: cell-based; conditions: 1 nM E2, normalized to vehicle
# Description: In addition, we used a crystal violet assay to measure the effect of T6I-14-1 on MCF7 viability.
# MCF7, MCF7:WS:8, Y537S ESR1 MCF7 and T47D breast cancer cell lines were grown in 96-well dishes at a starting cell count of 1000 cells per well. […] Cells were grown in a BioSpa attached to a BioTek Cytation 5 and were automatically counted every twelve hours for 7–10 days or until the E2-only wells reached confluence. Media was replaced every 4 days and drug was maintained in each media change. Each study was repeated three times with three technical replicates each.
# ERα [7] = target: T1, ERα; assay: In-cell Western of ERα levels in MCF7:WS8 cells; assay type: cell-based; parameters: endogenous in cells; conditions: MCF7:WS8, 1 μM, 24 h, compared to 4OHT
# From the text: SERMs and SERDs differentially affect ERα cellular lifetime/accumulation, which correlates with tissue-specific partial agonistic activities. SERMs increase WT ERα lifetime and are partial agonists in the bone and uterine epithelium by maintaining AF-1-dependent transcriptional coactivator recruitment. SERDs induce rapid WT ERα degradation and are pure antagonists[14],[17],[19],[22],[33]. […] We used an in-cell Western approach to measure how a subset of T6Is affected ERα levels in MCF7:WS8 breast cancer cells. […] A live cell halo-tagged ERα assay was then used to measure the impact of an expanded set of T6Is on receptor accumulation in T47D breast cancer cells after 24 h treatment. […] The difference between T6I-14 and 4OHT was not statistically significant in this assay. […] The IC50 values generally trended with observed differences in transcriptional IC50 (Fig. 2), while the effect at maximum dose varied greatly.
# In-cell Western analysis was performed in a similar manner as previously described. Briefly, T47D or MCF7:WS8 breast cancer cells were grown in blackout 96-well plates starting at 3000 cells per well. After 24 h, cells were placed in serum-starved media and allowed to acclimate for 48–72 h. Cells were treated with hormone, SERM, or SERD alongside vehicle control for 24 h. […] All data were collected on a LI-COR Odyssey DLx and analyzed using Emperia Studio. […]
# [8] = MCF7, 1 nM E2, read-out: Log(IC50) (converted)
compound,measurement,setting,value
"CC/C(=C(\c1ccc(O)cc1)c1ccc(OCCN(C)C)cc1)c1ccccc1 [4OHT, 4-hydroxytamoxifen, reference compound]",AP1 Induction,[1],0.67 + 0.12
same,AP induction (in words),[1]; 1 μM,robust stimulation of AP activity
same,Ishikawa cell count,Ishikawa cells,marginal but insignificant increase to cell count
"C[C@]12CC[C@@H]3c4ccc(O)cc4CC[C@H]3[C@@H]1CC[C@@H]2O [E2, 17β-estradiol]",Ishikawa cell count,Ishikawa cells,robust enhancement of proliferation
same,SUMO-related differentially expressed genes (RNAseq),[2],downregulates SUMO1 and upregulates desumoylating enzymes including SENP1 and SENP8
"Oc1ccc2c(c1)CC[C@H](c1ccccc1)[C@@H]2c1ccc(OCCN2CCCC2)cc1 [Laso, lasofoxifene]",CDK1 mRNA,[3],slightly upregulated CDK1
same,RPS6KL1 mRNA,[3],only slightly enriched
same,AP1 Induction,[1],0.51 + 0.16
same,AP activity,[1]; 1 μM,0.51 ± 0.16 absorbance units
same,cMYC mRNA,"[4]; MCF7:WS8, 1 μM + 1 nM E2",upregulated cMYC but it was significantly less (p = 0.02) than T6I-29-1A
"CCNCCc1ccc(CN(CC)c2cc(OC)ccc2[C@@H]2CCc3cc(O)ccc3C2)cc1 [RAD1901, elacestrant]",CDK1 mRNA,[3],slightly upregulated CDK1
same,RPS6KL1 mRNA,[3],only slightly enriched
same,AP1 Induction,[1],0.28 + 0.08
same,CDK1 mRNA,[4]; MCF7:WS8,downregulated its expression
same,reduced risk of disease progression or death,[5]; all patients,30%
same,reduced risk of disease progression or death,"[5]; patients with ESR1 mutations, including the Y537S",45%
O=C(CC(F)(F)F)N1C(c2ccc(OCCN3CCCC3)cc2)c2ccc(O)cc2CC12CC2 (stereo not drawn) [T6I-1C],IC50,ERα [6]; [8],170 nM
O=C(c1ccccc1)N1C(c2ccc(OCCN3CCCC3)cc2)c2ccc(O)cc2CC12CC2 (stereo not drawn) [T6I-1D],IC50,ERα [6]; [8],123 nM
same,IC50,"ERα [6]; MCF7, 1 nM E2, read-out: anti-transcriptional IC50",~100 nM
CCN1CC(COc2ccc(C3c4ccc(O)cc4CC4(CC4)N3C(=O)c3ccccc3)cc2)C1 (stereo not drawn) [T6I-3],AP1 Induction,[1],0.34 + 0.07
same,"anti-proliferative activity, cell count after 7 days (Fig. 7)",T47D breast cancer cells,did not improve anti-proliferative activities
O=C(c1ccccc1)N1C(c2ccc(OCC3CN(CCCF)C3)cc2)c2ccc(O)cc2CC12CC2 (stereo not drawn) [T6I-4A],AP1 Induction,[1],0.69 + 0.16
same,AP induction (in words),[1]; 1 μM,significant induction of AP compared to the propylazetidine-containing T6I-4
O=C(c1ccccc1)N1C(c2ccc(OCC3CN(CCCCl)C3)cc2)c2ccc(O)cc2CC12CC2 (stereo not drawn) [T6I-4B],AP1 Induction,[1],0.61 + 0.10
same,AP induction (in words),[1]; 1 μM,significant induction of AP compared to the propylazetidine-containing T6I-4
CCCN1CC(COc2ccc(C3c4ccc(O)cc4CC4(CC4)N3C(=O)c3ccccc3)cc2)C1 (stereo not drawn) [T6I-4],AP1 Induction,[1],0.24 + 0.07
same,AP induction (in words),[1]; 1 μM,AP induction similar to a SERD; also recorded: no measurable AP1 activity
CCCN1CCC(COc2ccc(C3c4ccc(O)cc4CC4(CC4)N3C(=O)c3ccccc3)cc2)C1 (stereo not drawn) [T6I-14],ERα levels by in-cell Western,ERα [7],significant enhancement
CCCCN1CCC(COc2ccc(C3c4ccc(O)cc4CC4(CC4)N3C(=O)c3ccccc3)cc2)C1 (stereo not drawn) [T6I-22],AP1 Induction,[1],0.55 + 0.06
CCCCCN1CCC(COc2ccc(C3c4ccc(O)cc4CC4(CC4)N3C(=O)c3ccccc3)cc2)C1 (stereo not drawn) [T6I-23],AP1 Induction,[1],0.44 + 0.08
O=C(c1ccccc1)N1C(c2ccc(OCC3CCN(CCCF)C3)cc2)c2ccc(O)cc2CC12CC2 (stereo not drawn) [T6I-29],AP1 Induction,[1],0.63 + 0.08
same,AP induction (in words),[1]; 1 μM,greater induction of AP1 compared to its separated chiral species
same,"anti-proliferative activity, cell count after 7 days (Fig. 7)",T47D breast cancer cells,slightly improved efficacy versus propyl alone
CCCN1CCC(CCc2ccc(C3c4ccc(O)cc4CC4(CC4)N3C(=O)c3ccccc3)cc2)C1 (stereo not drawn) [T6I-Me],AP1 Induction,[1],0.57 + 0.08
CCCN1CCC(CNc2ccc(C3c4ccc(O)cc4CC4(CC4)N3C(=O)c3ccccc3)cc2)C1 (stereo not drawn) [T6I-NH],AP1 Induction,[1],0.50 + 0.09
CCCN1CCC(CSc2ccc(C3c4ccc(O)cc4CC4(CC4)N3C(=O)c3ccccc3)cc2)C1 (stereo not drawn) [T6I-SH],AP1 Induction,[1],0.42 + 0.07
